Laboratory results as given in ChEMBL document CHEMBL1201862, “PubChem BioAssay data set” (2004).
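Each compound was tested at five concentrations against cells in 96-well plates for 48 hours. GI50 is the concentration that inhibits growth by half.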 The source made the active and inactive calls. No stated cut-off is given here; in the data, active = GI50 up to about 1.1 µM and inactive = higher.

Key:
Assay in all cases: NCI anticancer screen, dose series, 48 h
SF-295 = system: SF-295
HL-60 = system: HL-60
SF-268 = system: SF-268
OVCAR-3 = system: OVCAR-3
SK-MEL-2 = system: SK-MEL-2
HCT-116 = system: HCT-116
K562 = system: K562
HCT-15 = system: HCT-15
SF-539 = system: SF-539
MOLT-4 = system: MOLT-4
COLO 205 = system: COLO 205
SNB-19 = system: SNB-19
NCI-H23 = system: NCI-H23
UACC-62 = system: UACC-62
SN12C = system: SN12C
KM12 = system: KM12
SK-MEL-5 = system: SK-MEL-5
UO-31 = system: UO-31
SK-MEL-28 = system: SK-MEL-28
OVCAR-8 = system: OVCAR-8

Row | SMILES | GI50 (SF-295) | GI50 (HL-60) | GI50 (SF-268) | GI50 (OVCAR-3) | GI50 (SK-MEL-2) | GI50 (HCT-116) | GI50 (K562) | GI50 (HCT-15) [µM] | GI50 (SF-539) | GI50 (MOLT-4) | GI50 (COLO 205) | GI50 (SNB-19) | GI50 (NCI-H23) | GI50 (UACC-62) | GI50 (SN12C) | GI50 (KM12) | GI50 (SK-MEL-5) | GI50 (UO-31) | GI50 (SK-MEL-28) | GI50 (OVCAR-8)
1 | COc1ccc(C(c2cc3c(cc2O)OCO3)N2CCOCC2)cc1OC (centres undefined) | 14.2 µM (inactive) | 25.4 µM (inactive) | 10.9 µM (inactive) | 7.8 µM (inactive) | 16.6 µM (inactive) | 10.9 µM (inactive) | 7.6 µM (inactive) | 3.95 | 14.6 µM (inactive) | 3.48 µM (inactive) | 15.3 µM (inactive) | 16.7 µM (inactive) | 4.15 µM (inactive) | 5.75 µM (inactive) | 10.2 µM (inactive) | 12.4 µM (inactive) | 13.5 µM (inactive) | 11.1 µM (inactive) | 17.5 µM (inactive) | 5.02 µM (inactive)
2 | O=C(NN1C(=O)C(Cl)C1c1cccc([N+](=O)[O-])c1)c1ccccc1O (centres undefined) | > 100 µM (inactive) | > 100 µM (inactive) | > 100 µM (inactive) | > 100 µM (inactive) | > 100 µM (inactive) | > 100 µM (inactive) | > 100 µM (inactive) | – | > 100 µM (inactive) | > 100 µM (inactive) | > 100 µM (inactive) | 68.5 µM (inactive) | > 100 µM (inactive) | > 100 µM (inactive) | > 100 µM (inactive) | > 100 µM (inactive) | > 100 µM (inactive) | 71.9 µM (inactive) | > 100 µM (inactive) | > 100 µM (inactive)
3 | O=C(Nc1ccc([N+](=O)[O-])cc1[N+](=O)[O-])C(=O)C(C(=O)c1ccc2ccccc2c1)C1OC(=O)c2ccccc21 (centres undefined) | 13.5 µM (inactive) | 12.3 µM (inactive) | 8.89 µM (inactive) | – | 22.3 µM (inactive) | 17.6 µM (inactive) | 14 µM (inactive) | 15.9 | 4.5 µM (inactive) | 2.95 µM (inactive) | 15.8 µM (inactive) | 11.5 µM (inactive) | 7.29 µM (inactive) | 16.6 µM (inactive) | 17.8 µM (inactive) | 22.4 µM (inactive) | 15.3 µM (inactive) | 14 µM (inactive) | 20 µM (inactive) | 10 µM (inactive)
4 | CC(C)C1CN(C(=O)OCc2ccccc2)C2N1C(=O)C2(C)OCc1ccccc1 (centres undefined) | 34.8 µM (inactive) | 22.6 µM (inactive) | 44.6 µM (inactive) | > 100 µM (inactive) | 28.2 µM (inactive) | 37.6 µM (inactive) | 34.8 µM (inactive) | 44.8 | 56 µM (inactive) | 24.4 µM (inactive) | 19.1 µM (inactive) | 46.7 µM (inactive) | 24.5 µM (inactive) | 25.1 µM (inactive) | 48.6 µM (inactive) | – | 16 µM (inactive) | 20.3 µM (inactive) | > 100 µM (inactive) | 45.4 µM (inactive)
5 | COc1cc2c(c(OC)c1OC)-c1[nH]ncc1CC2 | > 100 µM (inactive) | > 100 µM (inactive) | > 100 µM (inactive) | > 100 µM (inactive) | > 100 µM (inactive) | > 100 µM (inactive) | > 100 µM (inactive) | > 100 | > 100 µM (inactive) | > 100 µM (inactive) | > 100 µM (inactive) | > 100 µM (inactive) | > 100 µM (inactive) | > 100 µM (inactive) | > 100 µM (inactive) | > 100 µM (inactive) | > 100 µM (inactive) | > 100 µM (inactive) | > 100 µM (inactive) | > 100 µM (inactive)
6 | O=C(Nc1ccc(F)cc1)c1cc2ccc(O)cc2o/c1=N\c1ccccc1F | 30.7 µM (inactive) | 18.6 µM (inactive) | 29.1 µM (inactive) | 27.9 µM (inactive) | 29.3 µM (inactive) | 24.8 µM (inactive) | 11.1 µM (inactive) | 18.9 | 42.7 µM (inactive) | 26.5 µM (inactive) | > 100 µM (inactive) | – | 1.62 µM (inactive) | 22.6 µM (inactive) | 51.8 µM (inactive) | 26.2 µM (inactive) | 10.7 µM (inactive) | – | 32.1 µM (inactive) | 13.7 µM (inactive)
7 | O=C(/C=C/CC(O)(c1ccccc1)c1ccccc1)Nc1ccccc1Cl | > 100 µM (inactive) | > 100 µM (inactive) | > 100 µM (inactive) | > 100 µM (inactive) | > 100 µM (inactive) | > 100 µM (inactive) | > 100 µM (inactive) | > 100 | – | > 100 µM (inactive) | > 100 µM (inactive) | > 100 µM (inactive) | > 100 µM (inactive) | > 100 µM (inactive) | > 100 µM (inactive) | > 100 µM (inactive) | > 100 µM (inactive) | > 100 µM (inactive) | > 100 µM (inactive) | > 100 µM (inactive)
